The values that follow come from patent publication US20230091561A1, “METHODS OF TREATING PRIMARY PROGRESSIVE MULTIPLE SCLEROSIS USING AN INHIBITOR OF BRUTON'S TYROSINE KINASE” (Genentech, Inc., priority 2020, published 2023).

By IC50 is commonly meant the concentration needed to halve the response being measured.

Like-named read-outs stand apart in the source and are kept apart here.

The target of one experiment is CSK (Homo sapiens, UniProt P41240). Nature of the experiment: Kinase selectivity IC50, CSK.
CSK, sequence (P41240 whole entry): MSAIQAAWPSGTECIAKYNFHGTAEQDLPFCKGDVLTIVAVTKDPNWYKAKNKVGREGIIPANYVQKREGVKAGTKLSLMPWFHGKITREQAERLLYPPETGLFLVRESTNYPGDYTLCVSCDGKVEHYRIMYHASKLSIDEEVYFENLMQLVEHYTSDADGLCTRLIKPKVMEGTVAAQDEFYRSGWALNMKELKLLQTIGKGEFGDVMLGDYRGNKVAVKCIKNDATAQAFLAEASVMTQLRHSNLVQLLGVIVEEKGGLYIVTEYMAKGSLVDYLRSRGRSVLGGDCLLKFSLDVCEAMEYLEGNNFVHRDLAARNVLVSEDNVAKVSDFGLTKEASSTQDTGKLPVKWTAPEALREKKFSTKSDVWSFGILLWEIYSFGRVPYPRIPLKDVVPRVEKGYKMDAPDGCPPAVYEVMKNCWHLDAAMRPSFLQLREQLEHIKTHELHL
The target of the next experiment is RIPK2 (Homo sapiens, UniProt O43353). Briefly: Kinase selectivity IC50, RIPK2.
RIPK2, sequence (O43353 whole entry): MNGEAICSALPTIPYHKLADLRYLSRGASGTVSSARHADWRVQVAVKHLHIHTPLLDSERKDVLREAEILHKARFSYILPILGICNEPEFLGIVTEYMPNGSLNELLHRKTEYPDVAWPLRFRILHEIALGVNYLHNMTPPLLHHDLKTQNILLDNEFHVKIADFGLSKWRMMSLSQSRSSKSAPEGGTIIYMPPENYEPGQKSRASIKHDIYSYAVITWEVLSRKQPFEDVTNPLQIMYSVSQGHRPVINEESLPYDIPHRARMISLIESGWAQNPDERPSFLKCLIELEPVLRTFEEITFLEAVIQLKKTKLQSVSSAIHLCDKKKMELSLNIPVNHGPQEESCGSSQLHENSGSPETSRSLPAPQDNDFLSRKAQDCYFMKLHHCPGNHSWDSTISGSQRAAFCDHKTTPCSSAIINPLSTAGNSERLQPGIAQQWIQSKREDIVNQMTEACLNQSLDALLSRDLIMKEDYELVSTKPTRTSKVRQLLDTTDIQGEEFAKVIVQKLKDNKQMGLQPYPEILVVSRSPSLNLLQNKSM
The target of experiment [1] is T1, Src (Homo sapiens, UniProt P12931). Nature of the experiment: Kinase selectivity IC50, Src.
T1 sequence (P12931 whole entry): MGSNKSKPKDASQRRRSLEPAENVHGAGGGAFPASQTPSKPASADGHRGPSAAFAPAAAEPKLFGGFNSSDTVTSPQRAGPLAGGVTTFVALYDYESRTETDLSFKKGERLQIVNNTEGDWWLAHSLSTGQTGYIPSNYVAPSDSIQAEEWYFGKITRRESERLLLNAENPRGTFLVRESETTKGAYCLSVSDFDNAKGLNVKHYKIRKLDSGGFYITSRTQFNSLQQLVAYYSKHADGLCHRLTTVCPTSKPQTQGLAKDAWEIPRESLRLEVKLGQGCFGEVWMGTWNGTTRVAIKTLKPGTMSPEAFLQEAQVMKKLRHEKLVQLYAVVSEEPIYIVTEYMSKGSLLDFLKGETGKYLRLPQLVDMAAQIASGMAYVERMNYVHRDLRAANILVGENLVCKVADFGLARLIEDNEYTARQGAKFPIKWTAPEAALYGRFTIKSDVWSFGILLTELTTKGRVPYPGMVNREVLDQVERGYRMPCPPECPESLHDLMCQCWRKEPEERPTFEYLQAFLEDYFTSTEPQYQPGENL
For a further experiment, the target named is TXK (Homo sapiens, UniProt P42681). Briefly: Kinase selectivity IC50, TXK.
The target of a further experiment is TNK2 (Homo sapiens, UniProt Q07912). Nature of the experiment: Kinase selectivity IC50, TNK2.
In another experiment the target is SRM (Homo sapiens, UniProt Q9H3Y6). Briefly: Kinase selectivity IC50, SRM.
The target in a further experiment is ERBB2 (Homo sapiens, UniProt P04626). Briefly: Kinase selectivity IC50, ERBB2.
Experiment [2] has as its target T2, Fgr (Homo sapiens, UniProt P09769). Nature of the experiment: Kinase selectivity IC50, Fgr.
A further experiment addresses FRK (Homo sapiens, UniProt P42685). Briefly: Kinase selectivity IC50, FRK.
Another experiment has as its target BLK (Homo sapiens, UniProt P51451). Nature of the experiment: Kinase selectivity IC50, BLK.
A further experiment deals with YES (Homo sapiens, UniProt P07947). Nature of the experiment: Kinase selectivity IC50, YES.
The target in a further experiment is BRK (Homo sapiens, UniProt Q13882). Briefly: Kinase selectivity IC50, BRK.
BRK, sequence (Q13882 whole entry): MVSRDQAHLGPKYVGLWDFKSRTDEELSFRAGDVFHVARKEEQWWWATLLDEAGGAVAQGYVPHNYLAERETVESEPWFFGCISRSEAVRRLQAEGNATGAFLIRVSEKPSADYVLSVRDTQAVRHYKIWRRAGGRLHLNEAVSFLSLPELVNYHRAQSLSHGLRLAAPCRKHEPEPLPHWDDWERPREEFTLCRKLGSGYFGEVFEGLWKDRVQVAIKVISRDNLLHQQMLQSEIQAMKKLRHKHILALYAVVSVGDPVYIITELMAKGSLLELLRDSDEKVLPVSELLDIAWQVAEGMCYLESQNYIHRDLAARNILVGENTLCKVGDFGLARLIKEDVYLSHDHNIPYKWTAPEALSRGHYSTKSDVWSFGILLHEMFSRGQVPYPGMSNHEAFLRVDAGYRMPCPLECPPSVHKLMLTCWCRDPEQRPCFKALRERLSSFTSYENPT
The target of experiment [3] is T3, BMX (Homo sapiens, UniProt P51813). Briefly: Covalent reaction (kinact/Ki), real-time competition with a fluorescent active site ligand, BMX.
T3 sequence (P51813 whole entry): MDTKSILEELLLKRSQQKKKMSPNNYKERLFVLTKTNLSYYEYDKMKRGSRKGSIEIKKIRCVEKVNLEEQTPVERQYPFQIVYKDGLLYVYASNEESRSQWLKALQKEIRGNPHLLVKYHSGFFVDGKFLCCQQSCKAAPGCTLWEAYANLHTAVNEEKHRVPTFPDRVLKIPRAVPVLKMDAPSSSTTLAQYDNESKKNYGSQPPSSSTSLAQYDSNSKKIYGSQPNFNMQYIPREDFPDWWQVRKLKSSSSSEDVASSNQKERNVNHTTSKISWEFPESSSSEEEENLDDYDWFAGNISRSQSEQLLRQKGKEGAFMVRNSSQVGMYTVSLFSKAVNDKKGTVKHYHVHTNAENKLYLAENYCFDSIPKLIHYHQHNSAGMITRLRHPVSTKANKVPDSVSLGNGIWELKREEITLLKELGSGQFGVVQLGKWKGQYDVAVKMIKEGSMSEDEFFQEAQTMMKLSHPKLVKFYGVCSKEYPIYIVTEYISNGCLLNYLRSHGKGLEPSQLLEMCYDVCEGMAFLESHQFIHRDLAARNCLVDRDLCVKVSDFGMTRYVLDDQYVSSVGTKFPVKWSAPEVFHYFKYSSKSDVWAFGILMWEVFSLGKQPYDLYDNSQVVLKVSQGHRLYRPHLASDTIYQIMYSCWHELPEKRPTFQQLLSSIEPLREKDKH
The target of another experiment is HCK (Homo sapiens, UniProt P08631). Nature of the experiment: Kinase selectivity IC50, HCK.
Experiment [4] has as its target T3, BMX. Nature of the experiment: Kinase selectivity IC50, BMX.
The target in the next experiment is LYN (Homo sapiens, UniProt P07948). Briefly: Kinase selectivity IC50, LYN.
Experiment [5] addresses T1, Src. Set-up: purchased. As to conditions: footnote a (Crawford et al.); cited from earlier work.
Experiment [6] concerns the target T2, Fgr. Set-up: purchased. The conditions noted are these: footnote a (Crawford et al.); cited from earlier work.
Another experiment concerns the target MKNK2 (Homo sapiens, UniProt Q9HBH9). Nature of the experiment: Kinase selectivity IC50, MKNK2.
The target in a further experiment is MLK2 (Homo sapiens, UniProt Q02779). Briefly: Kinase selectivity IC50, MLK2.
MLK2, sequence (Q02779 whole entry): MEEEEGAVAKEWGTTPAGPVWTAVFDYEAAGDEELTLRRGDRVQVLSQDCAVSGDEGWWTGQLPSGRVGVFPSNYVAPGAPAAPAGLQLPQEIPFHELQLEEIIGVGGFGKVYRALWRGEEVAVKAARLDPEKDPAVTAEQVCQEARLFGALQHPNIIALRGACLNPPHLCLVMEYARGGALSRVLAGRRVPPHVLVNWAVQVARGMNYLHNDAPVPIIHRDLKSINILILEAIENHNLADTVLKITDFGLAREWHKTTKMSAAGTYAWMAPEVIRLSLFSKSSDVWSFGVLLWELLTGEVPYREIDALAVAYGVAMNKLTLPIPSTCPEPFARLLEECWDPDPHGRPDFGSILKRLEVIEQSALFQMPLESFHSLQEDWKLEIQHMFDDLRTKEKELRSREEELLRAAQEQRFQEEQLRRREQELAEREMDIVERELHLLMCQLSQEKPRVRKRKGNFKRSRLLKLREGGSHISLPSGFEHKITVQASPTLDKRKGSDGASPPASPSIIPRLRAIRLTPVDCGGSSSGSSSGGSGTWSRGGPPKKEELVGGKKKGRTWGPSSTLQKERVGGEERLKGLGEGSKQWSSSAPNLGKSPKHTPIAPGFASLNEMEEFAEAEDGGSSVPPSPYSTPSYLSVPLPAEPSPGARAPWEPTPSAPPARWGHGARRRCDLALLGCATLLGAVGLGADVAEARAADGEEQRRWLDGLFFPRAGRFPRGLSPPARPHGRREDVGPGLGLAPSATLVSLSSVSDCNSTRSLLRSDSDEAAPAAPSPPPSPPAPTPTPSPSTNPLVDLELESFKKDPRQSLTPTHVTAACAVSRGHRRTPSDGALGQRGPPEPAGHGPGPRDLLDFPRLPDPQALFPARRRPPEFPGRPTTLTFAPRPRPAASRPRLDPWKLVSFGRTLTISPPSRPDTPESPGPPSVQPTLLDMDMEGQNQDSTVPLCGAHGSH
The target of the next experiment is CK1e1 (Homo sapiens, UniProt P49674). Briefly: Kinase selectivity IC50, CK1e1.
CK1e1, sequence (P49674 whole entry): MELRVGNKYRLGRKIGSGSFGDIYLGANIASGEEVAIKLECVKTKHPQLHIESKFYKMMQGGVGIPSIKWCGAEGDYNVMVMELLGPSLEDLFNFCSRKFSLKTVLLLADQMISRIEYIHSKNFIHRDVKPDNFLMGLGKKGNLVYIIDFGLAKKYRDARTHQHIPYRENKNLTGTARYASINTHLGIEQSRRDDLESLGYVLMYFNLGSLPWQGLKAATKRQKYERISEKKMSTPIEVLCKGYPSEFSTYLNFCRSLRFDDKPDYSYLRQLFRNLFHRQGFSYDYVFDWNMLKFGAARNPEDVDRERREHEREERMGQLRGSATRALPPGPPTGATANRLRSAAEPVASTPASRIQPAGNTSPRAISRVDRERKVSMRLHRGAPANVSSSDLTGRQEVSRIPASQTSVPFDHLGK
The target in a further experiment is T4, CDK8/cycC (Homo sapiens, UniProt P49336).
T4 construct: purchased
Briefly: Kinase selectivity IC50, CDK8/cycC. Type of experiment: biochemical. As to conditions: unpublished.

Another experiment deals with LCK (Homo sapiens, UniProt P06239). Briefly: Kinase selectivity IC50, LCK.
In another experiment the target is RET (Homo sapiens, UniProt P07949). Nature of the experiment: Kinase selectivity IC50, RET.
Another experiment deals with FLT3 (Homo sapiens, UniProt P36888). Nature of the experiment: Kinase selectivity IC50, FLT3.
A further experiment addresses FGFR1 (Homo sapiens, UniProt P11362). Briefly: Kinase selectivity IC50, FGFR1.

T2 sequence (P09769 whole entry): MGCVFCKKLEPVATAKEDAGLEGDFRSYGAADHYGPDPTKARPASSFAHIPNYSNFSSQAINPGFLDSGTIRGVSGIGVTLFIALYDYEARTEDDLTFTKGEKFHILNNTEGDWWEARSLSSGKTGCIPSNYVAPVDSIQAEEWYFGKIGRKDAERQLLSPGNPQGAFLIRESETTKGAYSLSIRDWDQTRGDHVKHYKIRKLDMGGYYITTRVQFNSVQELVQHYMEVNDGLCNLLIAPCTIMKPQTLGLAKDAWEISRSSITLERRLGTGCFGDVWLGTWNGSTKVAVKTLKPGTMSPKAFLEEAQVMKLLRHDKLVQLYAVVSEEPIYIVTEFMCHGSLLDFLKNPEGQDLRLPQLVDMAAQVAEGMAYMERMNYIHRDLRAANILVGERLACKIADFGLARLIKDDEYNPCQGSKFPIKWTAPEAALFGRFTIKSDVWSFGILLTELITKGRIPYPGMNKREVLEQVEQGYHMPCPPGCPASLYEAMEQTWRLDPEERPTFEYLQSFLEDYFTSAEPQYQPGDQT
MKNK2, sequence (Q9HBH9 whole entry): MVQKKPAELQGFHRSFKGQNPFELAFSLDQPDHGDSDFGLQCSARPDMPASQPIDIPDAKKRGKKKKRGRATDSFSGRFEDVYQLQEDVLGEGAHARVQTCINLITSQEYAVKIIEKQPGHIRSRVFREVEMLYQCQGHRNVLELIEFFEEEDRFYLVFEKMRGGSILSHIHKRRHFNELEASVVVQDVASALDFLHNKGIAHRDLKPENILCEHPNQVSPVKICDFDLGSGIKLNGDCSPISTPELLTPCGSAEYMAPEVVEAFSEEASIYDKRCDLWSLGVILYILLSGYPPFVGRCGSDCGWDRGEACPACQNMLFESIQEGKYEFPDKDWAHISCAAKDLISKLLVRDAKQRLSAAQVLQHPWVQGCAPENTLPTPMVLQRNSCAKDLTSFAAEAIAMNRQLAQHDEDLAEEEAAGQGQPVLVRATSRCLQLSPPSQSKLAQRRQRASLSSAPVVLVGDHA

With `C=CC(=O)N1CCC[C@@H](n2c(=O)n(-c3ccc(Oc4ccccc4)cc3)c3c(N)nccc32)C1` [Tolebrutinib], the IC50 against CSK worked out at 0.087 µM; against RIPK2, 0.125 µM; at Src [1], 0.054 µM; on TXK it was 0.0039 µM; against TNK2, 0.847 µM; on SRM, 0.116 µM. In addition, the IC50 on ERBB2 was 0.025 µM; against Fgr [2], 0.033 µM; on FRK it was 0.231 µM; against BLK, 0.003 µM; against YES, 0.016 µM; against BRK, 0.044 µM. Besides, the IC50 on HCK amounted to 0.091 µM; against BMX [4] it was 0.0025 µM; on LYN it was 0.194 µM. For the same molecule, the Ki on BMX [3] was determined as 0.042 µM.
In the case of `C[C@H]1CN(C2COC2)CCN1c1ccc(Nc2cc(-c3ccnc(N4CCn5c(cc6c5CC(C)(C)C6)C4=O)c3CO)cn(C)c2=O)nc1` [Fenebrutinib], the results for the IC50 at Src [5] and at Fgr [6] were 0.302 µM and 0.387 µM, respectively.
`C=CC(=O)N1CCC(CNc2ncnc(N)c2-c2ccc(Oc3ccccc3)cc2)CC1` [Evobrutinib]: the IC50 was 7.82 µM on CSK; 4.33 µM against RIPK2; 4.13 µM on MKNK2; 2.33 µM against Fgr [2]; 3.98 µM against MLK2; 6.02 µM at BRK. The IC50 on CK1e1 was determined as 1.45 µM; against CDK8/cycC, 3.5 µM; at LCK, 3.8 µM; against RET, 8.63 µM; at FLT3, 2.25 µM; against FGFR1, 4.15 µM.
